Here are results for 4 compounds from US10670605B2, “Cysteine reactive probes and uses thereof” (The Scripps Research Institute, priority 2015, dated 2020).

Holding throughout (assay): Competitive isoTOP-ABPP, cell lysates
Holding throughout (type): binding

The target in one assay is MLTK C22 (Q9NYL2) (Homo sapiens, UniProt Q9NYL2). The note with it: for isoTOP-ABPP ratio (reactivity profile), Q9NYL2_C22: 500 μm in-vitro ramos_231.
The target of another assay is CASP8 C360 (Q14790) (Homo sapiens, UniProt Q14790). Conditions: for R value (DMSO/fragment): 500 μM.
For another assay, the target named is PFKFB4 C159 (Q16877) (Homo sapiens, UniProt Q16877). Conditions: for isoTOP-ABPP ratio (reactivity profile), Q16877_C159: 500 μm in-vitro ramos.
In a further assay the target is LRBA C2675 (P50851) (Homo sapiens, UniProt P50851).
The target in the next assay is RRAGC C358 (Q9HB90) (Homo sapiens, UniProt Q9HB90).
Another assay addresses T1, USP28 C171 (Q96RU2) (Homo sapiens, UniProt Q96RU2).
T1 sequence (Q96RU2 1-1077): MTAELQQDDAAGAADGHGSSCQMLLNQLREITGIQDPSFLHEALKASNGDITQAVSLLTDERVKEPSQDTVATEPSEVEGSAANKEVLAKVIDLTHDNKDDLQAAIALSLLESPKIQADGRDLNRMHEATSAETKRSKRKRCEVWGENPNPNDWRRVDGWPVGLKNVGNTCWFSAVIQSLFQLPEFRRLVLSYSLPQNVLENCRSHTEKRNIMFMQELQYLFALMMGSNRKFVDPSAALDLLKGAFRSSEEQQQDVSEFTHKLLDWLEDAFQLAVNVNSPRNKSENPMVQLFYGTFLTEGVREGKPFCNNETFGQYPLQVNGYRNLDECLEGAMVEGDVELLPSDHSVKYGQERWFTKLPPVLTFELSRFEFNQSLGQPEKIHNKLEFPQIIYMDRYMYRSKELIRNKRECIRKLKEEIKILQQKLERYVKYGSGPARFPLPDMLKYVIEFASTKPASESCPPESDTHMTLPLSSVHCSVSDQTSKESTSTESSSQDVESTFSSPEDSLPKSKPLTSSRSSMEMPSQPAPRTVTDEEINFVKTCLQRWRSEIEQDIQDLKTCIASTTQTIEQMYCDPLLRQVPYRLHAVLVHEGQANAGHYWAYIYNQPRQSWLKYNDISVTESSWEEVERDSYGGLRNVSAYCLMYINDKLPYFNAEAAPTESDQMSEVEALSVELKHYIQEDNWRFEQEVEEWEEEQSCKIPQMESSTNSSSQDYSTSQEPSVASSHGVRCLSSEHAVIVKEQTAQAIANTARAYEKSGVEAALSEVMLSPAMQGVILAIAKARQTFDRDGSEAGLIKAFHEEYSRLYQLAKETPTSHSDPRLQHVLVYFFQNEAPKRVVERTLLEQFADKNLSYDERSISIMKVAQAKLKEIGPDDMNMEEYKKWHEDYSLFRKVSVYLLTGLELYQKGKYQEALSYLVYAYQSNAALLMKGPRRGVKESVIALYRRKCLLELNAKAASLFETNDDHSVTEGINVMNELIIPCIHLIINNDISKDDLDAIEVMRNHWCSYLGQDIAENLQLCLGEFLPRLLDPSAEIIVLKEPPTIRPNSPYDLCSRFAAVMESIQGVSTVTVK

MLTK C22 (Q9NYL2), sequence (Q9NYL2 whole entry, the tested form may be a part): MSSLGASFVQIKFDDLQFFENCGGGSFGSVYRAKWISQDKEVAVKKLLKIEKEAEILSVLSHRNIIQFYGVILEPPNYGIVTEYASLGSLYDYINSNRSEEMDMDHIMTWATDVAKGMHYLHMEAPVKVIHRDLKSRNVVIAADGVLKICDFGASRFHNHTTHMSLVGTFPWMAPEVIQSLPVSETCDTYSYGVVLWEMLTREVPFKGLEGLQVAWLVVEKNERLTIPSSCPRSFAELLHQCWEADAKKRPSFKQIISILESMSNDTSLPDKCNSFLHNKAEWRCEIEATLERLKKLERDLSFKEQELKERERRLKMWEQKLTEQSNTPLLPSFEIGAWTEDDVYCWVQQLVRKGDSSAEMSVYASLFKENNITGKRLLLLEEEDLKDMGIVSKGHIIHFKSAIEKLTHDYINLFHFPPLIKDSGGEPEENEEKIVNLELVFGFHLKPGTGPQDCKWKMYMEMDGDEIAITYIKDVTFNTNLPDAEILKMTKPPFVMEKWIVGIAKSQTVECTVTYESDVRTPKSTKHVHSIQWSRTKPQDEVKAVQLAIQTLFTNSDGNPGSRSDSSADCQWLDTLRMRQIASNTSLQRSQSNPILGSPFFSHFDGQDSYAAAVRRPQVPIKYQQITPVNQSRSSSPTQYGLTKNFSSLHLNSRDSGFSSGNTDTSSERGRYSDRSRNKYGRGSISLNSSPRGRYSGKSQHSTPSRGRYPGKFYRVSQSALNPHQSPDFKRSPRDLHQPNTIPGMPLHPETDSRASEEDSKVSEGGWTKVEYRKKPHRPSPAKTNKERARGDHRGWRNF
PFKFB4 C159 (Q16877), sequence (Q16877 whole entry): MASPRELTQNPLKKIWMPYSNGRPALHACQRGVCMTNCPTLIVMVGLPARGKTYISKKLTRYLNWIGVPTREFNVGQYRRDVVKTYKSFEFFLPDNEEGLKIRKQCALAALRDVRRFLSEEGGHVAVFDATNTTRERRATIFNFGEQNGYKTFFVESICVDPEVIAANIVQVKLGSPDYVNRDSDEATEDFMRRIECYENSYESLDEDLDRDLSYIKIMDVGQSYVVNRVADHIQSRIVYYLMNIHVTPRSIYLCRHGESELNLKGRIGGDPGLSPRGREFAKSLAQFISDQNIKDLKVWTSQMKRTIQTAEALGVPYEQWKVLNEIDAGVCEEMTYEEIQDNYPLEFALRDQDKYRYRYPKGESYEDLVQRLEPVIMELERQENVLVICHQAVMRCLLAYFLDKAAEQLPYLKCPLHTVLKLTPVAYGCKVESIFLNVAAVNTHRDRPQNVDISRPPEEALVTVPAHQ
LRBA C2675 (P50851), sequence (P50851 whole entry): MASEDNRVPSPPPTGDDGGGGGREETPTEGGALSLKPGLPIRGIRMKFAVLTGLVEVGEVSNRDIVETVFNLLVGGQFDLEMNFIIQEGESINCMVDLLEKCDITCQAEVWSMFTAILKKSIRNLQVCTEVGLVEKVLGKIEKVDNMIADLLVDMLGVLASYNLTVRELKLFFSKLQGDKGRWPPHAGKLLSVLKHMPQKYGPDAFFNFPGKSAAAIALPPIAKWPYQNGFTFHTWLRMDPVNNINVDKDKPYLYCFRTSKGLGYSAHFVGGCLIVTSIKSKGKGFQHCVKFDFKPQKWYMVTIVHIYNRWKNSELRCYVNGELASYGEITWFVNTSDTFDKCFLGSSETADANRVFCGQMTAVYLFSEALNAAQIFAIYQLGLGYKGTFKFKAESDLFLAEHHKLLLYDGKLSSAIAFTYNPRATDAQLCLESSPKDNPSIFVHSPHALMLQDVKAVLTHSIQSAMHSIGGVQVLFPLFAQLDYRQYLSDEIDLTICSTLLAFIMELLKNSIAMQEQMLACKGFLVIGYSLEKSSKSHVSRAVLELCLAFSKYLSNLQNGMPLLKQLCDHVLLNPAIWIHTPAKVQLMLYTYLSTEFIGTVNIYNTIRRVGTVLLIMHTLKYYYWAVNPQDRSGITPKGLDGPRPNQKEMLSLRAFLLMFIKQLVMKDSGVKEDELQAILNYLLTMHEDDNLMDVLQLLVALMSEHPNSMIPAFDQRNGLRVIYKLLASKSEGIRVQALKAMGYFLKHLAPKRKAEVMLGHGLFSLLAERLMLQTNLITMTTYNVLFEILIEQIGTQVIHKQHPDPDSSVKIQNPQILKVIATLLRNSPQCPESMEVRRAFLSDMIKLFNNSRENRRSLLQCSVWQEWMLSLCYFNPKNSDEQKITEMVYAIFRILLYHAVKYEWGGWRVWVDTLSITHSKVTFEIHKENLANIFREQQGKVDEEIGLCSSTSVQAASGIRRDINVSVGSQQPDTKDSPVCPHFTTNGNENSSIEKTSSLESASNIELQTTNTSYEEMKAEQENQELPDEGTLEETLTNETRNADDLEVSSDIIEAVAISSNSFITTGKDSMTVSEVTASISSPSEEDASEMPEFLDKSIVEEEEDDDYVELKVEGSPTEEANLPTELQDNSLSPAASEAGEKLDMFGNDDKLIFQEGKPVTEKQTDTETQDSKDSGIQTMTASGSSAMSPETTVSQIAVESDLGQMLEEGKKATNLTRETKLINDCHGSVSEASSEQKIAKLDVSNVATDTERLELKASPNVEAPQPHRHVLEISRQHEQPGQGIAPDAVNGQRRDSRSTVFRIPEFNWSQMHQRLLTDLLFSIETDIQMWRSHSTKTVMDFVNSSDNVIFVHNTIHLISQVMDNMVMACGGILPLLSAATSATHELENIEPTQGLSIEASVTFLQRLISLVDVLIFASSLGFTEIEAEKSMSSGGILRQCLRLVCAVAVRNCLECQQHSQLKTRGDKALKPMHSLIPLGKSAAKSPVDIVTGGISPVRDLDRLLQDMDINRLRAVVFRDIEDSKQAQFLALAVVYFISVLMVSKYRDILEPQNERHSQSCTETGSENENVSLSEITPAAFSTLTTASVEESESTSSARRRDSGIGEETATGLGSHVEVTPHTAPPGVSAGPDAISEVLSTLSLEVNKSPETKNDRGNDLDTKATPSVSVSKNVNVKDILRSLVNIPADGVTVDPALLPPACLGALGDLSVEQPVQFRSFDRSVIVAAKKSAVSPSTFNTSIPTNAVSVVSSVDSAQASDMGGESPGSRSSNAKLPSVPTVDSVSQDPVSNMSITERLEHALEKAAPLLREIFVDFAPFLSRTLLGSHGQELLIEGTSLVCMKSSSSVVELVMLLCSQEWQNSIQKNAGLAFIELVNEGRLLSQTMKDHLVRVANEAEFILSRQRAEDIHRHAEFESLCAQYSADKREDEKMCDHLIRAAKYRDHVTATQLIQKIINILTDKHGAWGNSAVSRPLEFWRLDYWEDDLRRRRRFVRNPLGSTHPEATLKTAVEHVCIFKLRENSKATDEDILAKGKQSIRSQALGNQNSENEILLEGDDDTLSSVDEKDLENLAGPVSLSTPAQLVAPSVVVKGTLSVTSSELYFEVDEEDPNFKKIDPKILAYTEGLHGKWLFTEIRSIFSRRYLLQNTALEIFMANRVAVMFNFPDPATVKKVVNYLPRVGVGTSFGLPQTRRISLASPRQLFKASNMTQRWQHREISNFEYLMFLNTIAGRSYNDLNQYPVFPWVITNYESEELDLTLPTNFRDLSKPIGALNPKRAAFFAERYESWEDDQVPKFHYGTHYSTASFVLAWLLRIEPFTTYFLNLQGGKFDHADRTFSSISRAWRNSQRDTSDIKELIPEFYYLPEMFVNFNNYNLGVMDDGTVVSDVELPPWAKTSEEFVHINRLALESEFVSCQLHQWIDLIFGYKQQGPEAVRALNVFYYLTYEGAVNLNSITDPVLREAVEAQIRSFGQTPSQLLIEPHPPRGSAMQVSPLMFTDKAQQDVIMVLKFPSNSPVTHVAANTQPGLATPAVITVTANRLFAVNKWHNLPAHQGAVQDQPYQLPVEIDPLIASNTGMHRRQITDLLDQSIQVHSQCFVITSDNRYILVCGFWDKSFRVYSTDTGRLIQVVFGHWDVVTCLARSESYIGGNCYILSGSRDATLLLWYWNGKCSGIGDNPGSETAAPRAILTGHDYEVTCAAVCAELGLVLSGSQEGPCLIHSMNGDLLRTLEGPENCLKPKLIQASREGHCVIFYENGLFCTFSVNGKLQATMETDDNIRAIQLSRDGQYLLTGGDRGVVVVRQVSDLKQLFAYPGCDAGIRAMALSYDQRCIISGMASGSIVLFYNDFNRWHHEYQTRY
CASP8 C360 (Q14790), sequence (Q14790 whole entry, the tested form may be a part): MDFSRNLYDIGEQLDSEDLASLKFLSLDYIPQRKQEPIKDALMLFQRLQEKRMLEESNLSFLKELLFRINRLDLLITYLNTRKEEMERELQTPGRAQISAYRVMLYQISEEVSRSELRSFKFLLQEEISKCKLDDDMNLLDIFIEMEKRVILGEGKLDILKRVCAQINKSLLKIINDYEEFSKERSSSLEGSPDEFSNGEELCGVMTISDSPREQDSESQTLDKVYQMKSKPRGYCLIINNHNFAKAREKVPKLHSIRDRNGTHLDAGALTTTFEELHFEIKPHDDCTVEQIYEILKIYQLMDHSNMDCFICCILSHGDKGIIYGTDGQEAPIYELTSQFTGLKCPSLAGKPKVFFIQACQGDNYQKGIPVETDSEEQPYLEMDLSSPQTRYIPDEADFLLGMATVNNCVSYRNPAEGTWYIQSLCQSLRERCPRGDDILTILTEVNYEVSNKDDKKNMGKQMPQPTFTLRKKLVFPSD

For `O=C(CCl)Nc1cc(C(F)(F)F)cc(C(F)(F)F)c1` [compound 3], the “R value (DMSO/fragment)” value is given as 1.8 on MLTK C22 (Q9NYL2) (500 μM, in vitro, MDA-MB-231); 3.3 at CASP8 C360 (Q14790) (in vitro, MDA-MB-231); 2.3 at CASP8 C360 (Q14790) (invitro, ramos); 12.9 at PFKFB4 C159 (Q16877) (500 μM, invitro, ramos); 5.1 at LRBA C2675 (P50851) (500 μM, invitro, ramos); 1.2 on RRAGC C358 (Q9HB90) (500 μM, in vitro, MDA-MB-231). Moreover, on USP28 C171 (Q96RU2) (500 μM, invitro, ramos), the “R value (DMSO/fragment)” value was 1.7.

For `O=C(CCl)NCCc1c[nH]c2ccccc12` [compound 13], the “isoTOP-ABPP ratio Q9NYL2_C22” value at MLTK C22 (Q9NYL2) (500 μM, invitro, 231) is on record as 5.2. For the same compound, the “isoTOP-ABPP ratio, Q16877_C159” value at PFKFB4 C159 (Q16877) (500 μM, invitro, 231) came to 0.9. The “isoTOP-ABPP ratio, Q9HB90_C358” value at RRAGC C358 (Q9HB90) (500 μM, invitro, 231) is reported as 1.5. Besides, the “isoTOP-ABPP ratio, Q96RU2_C171” value at USP28 C171 (Q96RU2) (500 μM, invitro, ramos) was determined as 2.4.

Consider `O=C(CCl)NC12CC3CC(CC(C3)C1)C2` [compound 21], for which, on MLTK C22 (Q9NYL2), the “isoTOP-ABPP ratio (reactivity profile), Q9NYL2_C22” value came to 2.0. In addition, the “isoTOP-ABPP ratio (reactivity profile), Q14790_C360” value on CASP8 C360 (Q14790) (500 μm in-vitro ramos) and at CASP8 C360 (Q14790) (500 μm in-vitro ramos_231) was 1.9 each time. Moreover, the “isoTOP-ABPP ratio (reactivity profile), Q16877_C159” value at PFKFB4 C159 (Q16877) is 1.2. In addition, the “isoTOP-ABPP ratio (reactivity profile), P50851_C2675” value at LRBA C2675 (P50851) (500 μm in-vitro ramos) was found to be 1.5; at LRBA C2675 (P50851) (500 μm in-vitro ramos_231), 0.9. The “isoTOP-ABPP ratio (reactivity profile), Q9HB90_C358” value at RRAGC C358 (Q9HB90) (500 μm in-vitro ramos_231) stood at 1.2. On USP28 C171 (Q96RU2) (500 μm in-vitro ramos_231), the “isoTOP-ABPP ratio (reactivity profile), Q96RU2_C171” value is 1.1.

With `N#C/C(=C\c1cc(C(F)(F)F)cc(C(F)(F)F)c1)C(N)=O` [compound 23], the “isoTOP-ABPP ratio (reactivity profile), Q9NYL2_C22” value on MLTK C22 (Q9NYL2) was 1.4. In addition, the “isoTOP-ABPP ratio (reactivity profile), Q14790_C360” value on CASP8 C360 (Q14790) (500 μm in-vitro ramos) and on CASP8 C360 (Q14790) (500 μm in-vitro ramos_231) was 1.4 each time. Also, the “isoTOP-ABPP ratio (reactivity profile), Q16877_C159” value on PFKFB4 C159 (Q16877) was 1.0. For the same compound, the “isoTOP-ABPP ratio (reactivity profile), P50851_C2675” value on LRBA C2675 (P50851) (500 μm in-vitro ramos) is reported as 2.6. In addition, the “isoTOP-ABPP ratio (reactivity profile), Q96RU2_C171” value at USP28 C171 (Q96RU2) (500 μm in-vitro ramos) is 1.2.
